From publication PMC8079033, “Design, synthesis, anticancer evaluation, and molecular modelling studies of novel tolmetin derivatives as potential VEGFR-2 inhibitors and apoptosis inducers” (Journal of Enzyme Inhibition and Medicinal Chemistry, 2021)

Tests used:
[1] = molecular target: T1, VEGFR-2 (KDR) (Homo sapiens, UniProt P35968); assay: VEGFR-2 (KDR) Kinase Assay Kit (Kinase-Glo Max luminescence); assay type: biochemical; conditions: mean ± SD of three experiments
T1 construct: purchased 40325
T1 sequence (P35968 20-1356): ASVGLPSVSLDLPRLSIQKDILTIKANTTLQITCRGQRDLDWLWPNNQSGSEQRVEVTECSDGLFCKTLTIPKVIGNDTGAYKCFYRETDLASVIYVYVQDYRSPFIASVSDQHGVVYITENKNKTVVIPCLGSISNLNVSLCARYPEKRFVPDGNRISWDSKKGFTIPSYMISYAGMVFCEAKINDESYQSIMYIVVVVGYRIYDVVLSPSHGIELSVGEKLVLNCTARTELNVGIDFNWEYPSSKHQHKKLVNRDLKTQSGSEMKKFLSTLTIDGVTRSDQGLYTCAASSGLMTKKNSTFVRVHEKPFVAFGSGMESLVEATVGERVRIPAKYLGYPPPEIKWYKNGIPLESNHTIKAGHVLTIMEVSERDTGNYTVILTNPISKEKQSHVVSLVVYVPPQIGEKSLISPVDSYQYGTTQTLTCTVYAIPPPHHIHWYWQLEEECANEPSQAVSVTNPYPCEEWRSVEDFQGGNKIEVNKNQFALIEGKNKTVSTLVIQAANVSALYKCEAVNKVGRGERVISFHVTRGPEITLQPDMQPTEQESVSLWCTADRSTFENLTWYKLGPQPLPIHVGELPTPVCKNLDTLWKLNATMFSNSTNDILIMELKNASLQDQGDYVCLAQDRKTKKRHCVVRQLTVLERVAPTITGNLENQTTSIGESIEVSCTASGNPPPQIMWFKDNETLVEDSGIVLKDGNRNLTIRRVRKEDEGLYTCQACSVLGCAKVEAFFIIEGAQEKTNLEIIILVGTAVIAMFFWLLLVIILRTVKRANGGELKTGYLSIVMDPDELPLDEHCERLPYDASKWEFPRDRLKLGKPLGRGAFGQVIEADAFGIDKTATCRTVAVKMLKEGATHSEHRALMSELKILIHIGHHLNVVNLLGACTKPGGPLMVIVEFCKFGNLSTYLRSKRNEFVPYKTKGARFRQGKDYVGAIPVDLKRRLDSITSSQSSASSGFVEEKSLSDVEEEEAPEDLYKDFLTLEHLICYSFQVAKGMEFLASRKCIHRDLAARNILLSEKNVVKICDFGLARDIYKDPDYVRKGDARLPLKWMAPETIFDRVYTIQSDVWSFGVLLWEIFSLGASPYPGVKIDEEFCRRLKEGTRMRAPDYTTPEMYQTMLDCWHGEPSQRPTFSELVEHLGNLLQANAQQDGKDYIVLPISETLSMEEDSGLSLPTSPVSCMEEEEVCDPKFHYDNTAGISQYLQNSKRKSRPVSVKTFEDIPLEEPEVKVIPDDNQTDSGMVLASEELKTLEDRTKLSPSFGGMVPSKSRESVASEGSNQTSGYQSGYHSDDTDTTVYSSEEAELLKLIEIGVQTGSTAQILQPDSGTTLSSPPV
Protocol: In brief, the master mixture (25 µl per well) was prepared and added to each well. 5 µl of inhibitor solution of each well labelled as “Test Inhibitor” was added. For the “Positive Control” and “Blank,” 5 µl of the same solution without inhibitor (Inhibitor buffer) was added. 3 ml of kinase buffer was prepared by mixing 600 µl of kinase buffer with 2400 µl water. To the wells designated as “Blank,” 20 µl of kinase buffer was added. The amount of VEGFR-2 required for the assay was calculated and the enzyme was diluted to 1 ng/µl with kinase buffer. The reaction was initiated by adding 20 µl of diluted VEGFR-2 enzyme to the wells designated “Positive Control” and “Test Inhibitor Control.” The mixtures were incubated at 30 °C for 45 min. After the 45 min, 50 µl of Kinase-Glo Max reagent was added to each well. The plate was incubated at room temperature for 15 min. Luminescence was measured using the microplate reader.

[2] = test system: HUVECs; assay: Wound healing assay (CytoSelect 24-well); assay type: cell-based, human; conditions: 72 h, 5b 2.4 µM, sunitinib 3.2 µM, control 97.03 ± 5.47
Protocol: Wound healing assay of compound 5b was evaluated using CytoSelect™ 24-Well Wound Healing Assay kit Catalog # CBA-120 according to manufacturer’s instructions. In brief, the 24-well plate wound healing inserts were allowed to warm up at room temperature for 10 minutes, then to each well, 500 µl of human umbilical vascular endothelial cells (HUVECs) suspension (1.0 × 10^6) in media containing 10% fetal bovine serum (FBS) was added. Cells were kept in a cell culture incubator until a monolayer form. Carefully the insert was removed from the well. The media were slowly aspirated and discarded from the wells. The wells were washed with media to remove dead cells and debris. Finally, the media were added to wells to keep cells hydrated, then wells were visualized under a light microscope. […] The percent closure of the cells into the wound field was measured.
One of the hallmarks of angiogenesis is cell migration, which happens in the earlier stages of the angiogenic cascade. A wound-healing assay was performed to investigate in vitro anti-angiogenic property of compound 5b.

[3] = test system: HCT-15 cells; assay: Annexin V-FITC/PI apoptosis assay; assay type: cell-based, human
Protocol: Apoptosis was determined by staining the cells with Annexin V fluorescein isothiocyanate (FITC) and counterstaining with PI using the Annexin V-FITC/PI apoptosis detection kit (BD Biosciences, San Diego, CA) according to the manufacturer’s instructions. […] The cells then were collected by trypsinization and 0.5 × 10^6 cells were washed twice with PBS and stained with 5 µl Annexin V-FITC and 5 µl PI in 1 × binding buffer for 15 min at room temperature in the dark. Analyses were performed using FACS Calibur flow cytometer (BD Biosciences, San Jose, CA).
This clearly verifies that, cell death resulting from the antiproliferative action of the target tolmetin derivative 5b was attributable to physiological apoptosis.

[4] = test system: caspase-8; assay: Caspase-8 ELISA in HCT-15 cells; assay type: cell-based, human
Protocol: (§1) To measure caspase-8 and caspase-9 levels, DRG® Caspase-8 (human) (EIA-4863) ELISA and DRG® Caspase-9 (human) (EIA-4860) ELISA kits were used. Briefly, prepare cell extracts after induction of apoptosis. Resuspend the extracts in lysis buffer, incubate 60 min at room temperature, and centrifuge for 15 min. Wash the microwell strips with 400 µl wash buffer. Add 100 µl of sample diluent in duplicate to all standard wells. Add 100 µl of sample diluent in duplicate to the blank wells. Add 50 µl of sample diluent to the sample wells. Add 50 µl of each sample in duplicate to the sample wells. Add 50 µl of detection antibody to all wells and incubate at room temperature for 2 h. Add 100 µl of diluted anti-rabbit-IgG-HRP to all wells, including the blank wells. Pipette 100 µl of (3,3′,5,5′-Tetramethylbenzidine) TMB substrate solution to all wells and incubate at room temperature for about 15 min. Stop the enzyme reaction by pipetting 100 µl of stop solution into each well. Read absorbance of each microwell on a spectro-photometer using 450 nm. Determine the absorbance of both the samples and the standards.
(§2) The activation of caspases as caspase-3, caspase-8, and caspase-9 is responsible for apoptosis, particularly caspase-3 which is an effector caspase that has an important role in apoptosis. It is activated by one of the initiator caspases which results in the activation of certain enzymes responsible for the fragmentation of DNA[53]. Caspase-8 and -9 are initiator caspases that are responsible for caspase-3 activation.

[5] = test system: caspase-9; assay: Caspase-9 ELISA in HCT-15 cells; assay type: cell-based, human
Protocol: as §1, §2

[6] = test system: caspase-3; assay: Caspase-3 (active) ELISA in HCT-15 cells; assay type: cell-based, human
Protocol: The level of the apoptotic marker caspase-3 was assessed using Human Caspase-3 (active) ELISA Kit Catalog # KHO1091. The procedure of the used kit was done according to the manufacturer’s instructions. Allow all reagents to reach room temperature before use. Gently mix all liquid reagents prior to use. Add 100 µl of the standard diluent buffer to the zero standard wells. Add 100 µl of standards and controls or diluted samples to the appropriate microtiter wells. Incubate for 2 h at room temperature. […] Incubate for 1 h at room temperature. Add 100 µl anti-rabbit IgG HRP working solution to each well. Prepare the working dilution and incubate for 30 min at room temperature. Add 100 µl of stabilised chromogen to each well. The liquid in the wells will begin to turn blue. Incubate for 30 min at room temperature and in the dark. Add 100 µl of stop solution to each well. The solution in the wells should change from blue to yellow. Read the absorbance of each well at 450 nm. Read the plate within 2 h after adding the stop solution. Use a curve fitting software to generate the standard curve. Read the concentrations for unknown samples and controls from the standard curve.
as §2

[7] = test system: HCT-15 cells; assay: Cell cycle analysis by flow cytometry (PI); assay type: cell-based, human
Protocol: After treatment, the cells were washed twice with ice-cold phosphate buffer saline (PBS), collected by centrifugation, and fixed in ice-cold 70% (v/v) ethanol, washed with PBS, resuspended with 0.1 mg/ml RNase, stained with […] propidium iodide (PI), and analysed by flow cytometry using FACS Calibur (Becton Dickinson)[45]. The cell cycle distributions were calculated using Cell- Quest software (Becton Dickinson).
Anticancer agents exert their cytotoxic action by aborting cellular proliferation at certain checkpoints. These checkpoints are distinguishable phases in the cell cycle, whose suppression results in the termination of the cell proliferation. Cell cycle analysis employs flow cytometry to distinguish cells within the different cell cycle phases. […] Moreover, marked augmentation in the proportion of cells in the G0-G1 phase by 1.32-fold, and in the Sub-G1 phase by 18.7-fold, in comparison to the control (DMSO).

Cc1ccc(C(=O)c2ccc(CC(=O)NN=Cc3cccc(O)c3O)n2C)cc1 [Compound 5b, N′-(2,3-Dihydroxybenzylidene)-2–(1-methyl-5–(4-methylbenzoyl)-1H-pyrrol-2-yl) acetohydrazide]
IC50 [1]: 200 ± 20 nM | Wound closure percentage [2]: 51.85 ± 2.92% | Apoptosis Late ([3]; IC50 concentration, 24 h, control 0.13): 22.12% | Apoptosis Early ([3]; IC50 concentration, 24 h, control 0.34): 2.66% | Apoptosis Total ([3]; IC50 concentration, 24 h, control 0.47): 24.78% | Necrosis ([3]; IC50 concentration, 24 h, control 0.99): 12.51% | increase in the total apoptosis percentage ([3]; vs control (DMSO)): 52.72 fold | Caspase-8 ([4]; mean ± SD of three experiments, control 0.377 ± 0.03): 0.704 ± 0.06 ng/mL | increase in the level of caspase-8 ([4]; vs control): 1.867 fold | Caspase-9 ([5]; mean ± SD of three experiments, control 3.225 ± 0.44): 24.58 ± 0.82 ng/mL | increase in the level of caspase-9 ([5]; vs control): 7.622 fold | Caspase-3 ([6]; mean ± SD of three experiments, control 0.073 ± 0.01): 0.570 ± 0.01 ng/mL | increase in the level of caspase-3 ([6]; vs control): 7.808 fold | augmentation in the proportion of cells in the G0-G1 phase ([7]; 6.62 µM, vs control (DMSO)): 1.32 fold | decline in the cell population at the G2/M phase ([7]; 6.62 µM, vs control (DMSO)): 65.61% | decline in the cell population at the S phase ([7]; 6.62 µM, vs control (DMSO)): 16.88% | %Pre-G1 ([7]; IC50 concentration (6.62 µM), 24 h, control 1.46): 37.29% | %G2/M ([7]; IC50 concentration (6.62 µM), 24 h, control 6.95): 2.39% | %G0–G1 ([7]; IC50 concentration (6.62 µM), 24 h, control 41.69): 54.92% | %S ([7]; IC50 concentration (6.62 µM), 24 h, control 51.36): 42.69%
